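Tested at 5 concentrations; 48 h exposure; 96-well plates; endpoints linearly interpolated, else capped at highest concentration. GI50 is the concentration that inhibits growth by half. TGI marks complete inhibition of growth.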
What was measured:
Assay in all cases: NCI-60 cell line screen, 48 h
[1] = system: HOP-92 NSCLC
[2] = system: 786-0 renal
[3] = system: HT29 colon
[4] = system: SN12C renal
[5] = system: SK-OV-3 ovarian
[6] = system: SK-MEL-5 melanoma
[7] = system: MDA-MB-435
[8] = system: SNB-75 CNS
[9] = system: M14 melanoma
[10] = system: SR leukemia

Compound: CN1CCN(c2ccc3c4c(cccc24)C(=O)N(CCN2CCN(CCCN4CCN(CCN5C(=O)c6cccc7c(N8CCN(C)CC8)ccc(c67)C5=O)CC4)CC2)C3=O)CC1
- GI50 [1]: 2390 nM
- TGI [1]: 10.9 µM
- GI50 [2]: 1790 nM
- TGI [2]: 6.87 µM
- GI50 [3]: 1130 nM
- TGI [3]: 4.31 µM
- GI50 [4]: 4.02 µM
- TGI [4]: 11.2 µM
- GI50 [5]: 9.49 µM
- TGI [5]: 18.3 µM
- GI50 [6]: 8590 nM
- TGI [6]: 18.6 µM
- GI50 [7]: 7.34 µM
- TGI [7]: 15500 nM
- GI50 [8]: 7 µM
- TGI [8]: 14.1 µM
- GI50 [9]: 7.54 µM
- TGI [9]: 14.2 µM

Compound: Cn1c(=O)cc2c3c(c(NCCCO)ccc31)C(=O)c1ccccc1-2
- GI50 [2]: 1530 nM
- TGI [2]: > 100 µM
- GI50 [3]: 2160 nM
- TGI [3]: > 100 µM
- GI50 [4]: 3.45 µM
- TGI [4]: > 100 µM
- GI50 [10]: 694 nM
- TGI [10]: 13.4 µM
- GI50 [5]: 9.81 µM
- TGI [5]: > 100 µM
- GI50 [6]: 3970 nM
- TGI [6]: > 100 µM
- GI50 [7]: 3.47 µM
- TGI [7]: > 100000 nM
- GI50 [8]: 4.36 µM
- TGI [8]: > 100 µM
- GI50 [9]: 3.13 µM
- TGI [9]: > 100 µM

Compound: COc1cnc2c(c1)C(=O)c1c-2n(CCCn2ccnc2)c(=O)c2cc(Cl)ccc12
- GI50 [1]: 72.6 nM
- TGI [1]: 56.2 µM
- GI50 [2]: 26.2 nM
- TGI [2]: 0.0823 µM
- GI50 [5]: 0.0403 µM
- TGI [5]: 0.303 µM
- GI50 [6]: 38.7 nM
- TGI [6]: 0.164 µM
- GI50 [7]: 0.145 µM
- TGI [7]: 1290 nM
- GI50 [8]: 0.219 µM
- TGI [8]: 18.9 µM
- GI50 [9]: 0.0282 µM
- TGI [9]: 0.162 µM

Compound: CCCNCc1nc2ccc(Br)cc2c(=O)n1CCC
- TGI [2]: 29.5 µM
- TGI [3]: 29.9 µM
- TGI [4]: 26.7 µM
- TGI [10]: > 100 µM
- TGI [5]: 32.6 µM
- TGI [6]: 21.6 µM
- TGI [8]: 31.7 µM
- TGI [9]: 27.4 µM

Compound: N=C(N)SCCc1cn2ccccc2n1
- TGI [2]: > 100 µM
- TGI [3]: > 100 µM
- TGI [4]: > 100 µM
- TGI [10]: > 100 µM
- TGI [6]: > 100 µM
- TGI [8]: > 100 µM
- TGI [9]: > 100 µM

Compound: CC1=CC(C)(C)N=C2SC(c3ccc(Cl)cc3)=NN12
- TGI [1]: 61.5 µM
- TGI [2]: 32.8 µM
- TGI [3]: 38.7 µM
- TGI [5]: > 100 µM
- TGI [6]: 33.9 µM
- TGI [9]: > 100 µM

Compound: O=[N+]([O-])c1ccccc1N=Nc1c(O)[nH]c2ccccc12
- TGI [2]: 36.1 µM
- TGI [3]: > 100 µM
- TGI [4]: > 61.6 µM
- TGI [10]: > 100 µM
- TGI [5]: > 53.7 µM
- TGI [6]: > 86.2 µM
- TGI [7]: > 100000 nM
- TGI [8]: 68.8 µM
- TGI [9]: > 100 µM

Compound: O=C1CCCC/C1=C/C=C/c1ccccc1
- TGI [1]: > 100 µM
- TGI [2]: > 100 µM
- TGI [3]: > 100 µM
- TGI [4]: > 100 µM
- TGI [5]: > 100 µM
- TGI [6]: > 100 µM
- TGI [8]: > 100 µM
- TGI [9]: > 100 µM

Compound: CC(C)C(=O)N[C@@H](C)C(=O)N(Cc1ccc2ccccc2c1)N=O
- TGI [2]: > 100 µM
- TGI [3]: > 100 µM
- TGI [4]: > 100 µM
- TGI [5]: > 100 µM
- TGI [6]: > 100 µM
- TGI [8]: > 100 µM
- TGI [9]: > 100 µM

Compound: CCc1c2c(nc3cc4c(cc13)OCO4)-c1cc3c(c(=O)n1C2)COC(=O)[C@@]3(CC)OC(=O)CN
- GI50 [2]: < 10 nM
- TGI [2]: < 0.0127 µM
- GI50 [3]: < 10 nM
- TGI [3]: 3.83 µM
- GI50 [4]: < 0.01 µM
- TGI [4]: 0.034 µM
- GI50 [10]: < 10 nM
- TGI [10]: < 0.0389 µM
- GI50 [5]: < 0.01 µM
- TGI [5]: < 0.0185 µM
- GI50 [6]: < 10 nM
- TGI [6]: 0.037 µM
- GI50 [7]: < 0.01 µM
- TGI [7]: 1230 nM
- GI50 [8]: < 0.01 µM
- TGI [8]: < 0.045 µM
- GI50 [9]: < 0.01 µM
- TGI [9]: < 0.0247 µM

Compound: CC1(O)CC2C(CC1SCCO)C2(C)C (centres undefined)
- TGI [1]: > 100 µM
- TGI [2]: > 100 µM
- TGI [3]: > 100 µM
- TGI [4]: > 100 µM
- TGI [5]: > 100 µM
- TGI [6]: > 100 µM
- TGI [8]: > 100 µM
- TGI [9]: > 100 µM

Compound: N#Cc1ccccc1C#C/C=C\C#Cc1ccc(OCCCNC(=O)c2cc3ccccc3[nH]2)cc1
- GI50 [2]: 16100 nM
- TGI [2]: 40.5 µM
- GI50 [3]: 30900 nM
- TGI [3]: > 100 µM
- GI50 [5]: 19.3 µM
- TGI [5]: 54.5 µM
- GI50 [6]: 4240 nM
- TGI [6]: 20.2 µM
- GI50 [7]: 19 µM
- TGI [7]: 42700 nM
- GI50 [8]: 17.9 µM
- TGI [8]: 42.6 µM
- GI50 [9]: 21.8 µM
- TGI [9]: > 100 µM

Compound: CC(=O)O[C@@H]1CO[C@H]2O[C@H]3[C@@H](C(C=O)=C[C@H](O)[C@@H]4C5=C(C(C)C)CC[C@]5(C)CC[C@@]34C)[C@@]2(O)C1=O
- TGI [1]: 0.554 µM
- TGI [2]: 0.253 µM
- TGI [3]: 0.471 µM
- TGI [4]: 0.448 µM
- TGI [6]: 0.577 µM
- TGI [7]: 393 nM
- TGI [8]: 1.35 µM
- TGI [9]: 0.723 µM

Compound: Cc1ccccc1C(=O)Oc1ccc(Oc2ccccc2)cc1
- TGI [2]: > 100 µM
- TGI [3]: > 100 µM
- TGI [4]: > 100 µM
- TGI [5]: > 100 µM
- TGI [6]: > 100 µM
- TGI [8]: > 100 µM
- TGI [9]: > 100 µM

Compound: CC(=O)OC1CC2CCC1(C)C2(C)C (centres undefined)
- TGI [2]: > 100 µM
- TGI [3]: > 100 µM
- TGI [4]: > 100 µM
- TGI [5]: > 100 µM
- TGI [7]: > 100000 nM
- TGI [8]: > 100 µM
- TGI [9]: > 100 µM

Compound: CC(=O)OC1COC(S[As](C)C)C(OC(C)=O)C1OC(C)=O (centres undefined)
- GI50 [1]: 33.2 nM
- TGI [1]: 0.28 µM
- GI50 [2]: 81.1 nM
- TGI [2]: 1.12 µM
- GI50 [3]: 558 nM
- TGI [3]: > 100 µM
- GI50 [4]: 0.48 µM
- TGI [4]: 2.74 µM
- GI50 [5]: 1.81 µM
- TGI [5]: 17.3 µM
- GI50 [6]: 65.8 nM
- TGI [6]: 0.253 µM
- GI50 [7]: 0.0643 µM
- TGI [7]: 358 nM
- GI50 [8]: 3.49 µM
- TGI [8]: 21.7 µM
- GI50 [9]: < 0.0419 µM
- TGI [9]: 1.1 µM

Compound: Nc1ccc(Nc2nc(F)nc(-c3c4ccccc4c4n3CCS4)n2)cc1
- TGI [1]: 30.5 µM
- TGI [2]: 32 µM
- TGI [4]: 33.4 µM
- TGI [5]: 31.1 µM
- TGI [6]: 25.8 µM
- TGI [8]: 31 µM
- TGI [9]: 31.6 µM

Compound: COC(=O)CCC(=O)c1c(C)[nH]c(/C=C2\N=C(c3ccc[nH]3)C=C2OC)c1C
- GI50 [1]: 486 nM
- TGI [1]: 1.55 µM
- GI50 [2]: 552 nM
- TGI [2]: 1.82 µM
- GI50 [3]: 73.7 nM
- TGI [3]: 1.48 µM
- GI50 [4]: 1.45 µM
- TGI [4]: 5.38 µM
- GI50 [5]: 6.16 µM
- TGI [5]: 13.8 µM
- GI50 [6]: 567 nM
- TGI [6]: 1.71 µM
- GI50 [7]: 0.426 µM
- TGI [7]: 1630 nM
- GI50 [8]: 0.971 µM
- TGI [8]: 3.51 µM
- GI50 [9]: 0.431 µM
- TGI [9]: 1.91 µM

Compound: COc1ccc(C(c2ccc(C(C)C)cc(=O)c2O)c2c(O)cc3oc(-c4ccccc4)cc(=O)c3c2O)cc1 (centres undefined)
- TGI [1]: 3.53 µM
- TGI [2]: 14.1 µM
- TGI [3]: 62.9 µM
- TGI [4]: 70.9 µM
- TGI [5]: 55.4 µM
- TGI [6]: 29.4 µM
- TGI [8]: > 100 µM
- TGI [9]: 22.2 µM

Compound: C=CC1CC12C(=O)C1OC2(C)C2C(=O)c3c(ccc4c3ccc3ccccc34)C(=O)C12 (centres undefined)
- GI50 [1]: 34400 nM
- TGI [1]: > 100 µM
- GI50 [2]: 38800 nM
- TGI [2]: > 100 µM
- GI50 [3]: 91600 nM
- TGI [3]: > 100 µM
- GI50 [4]: 64.3 µM
- TGI [4]: > 100 µM
- GI50 [5]: > 100 µM
- TGI [5]: > 100 µM
- GI50 [7]: 41.4 µM
- TGI [7]: > 100000 nM
- GI50 [8]: > 100 µM
- TGI [8]: > 100 µM
- GI50 [9]: 67.3 µM
- TGI [9]: > 100 µM

Source: PubChem BioAssay (NCI)
